# ChEMBL document CHEMBL3596165, “Synthesis, structure elucidation and identification of antiproliferative activities of a novel class of thiophene bioisosteres bearing the privileged 7,8-dihydroimidazo[2,1-c][1,2,4]triazin-4(6H)-one scaffold” (Bioorg Med Chem, 2015)
# pIC50: −log10 of the molar value.
# Experiments:
# Vero [1] = assay: Antiproliferative activity against African green monkey Vero cells after 72 hrs by BrdUrd incorporation assay; format: cell-based; settings: Chlorocebus sabaeus
# HeLa [2] = assay: Antiproliferative activity against human HeLa cells at 50 ug/ml after 48 hrs by BrdUrd incorporation assay; format: functional; settings: read-out: GI
# TOV112D [3] = assay: Antiproliferative activity against human TOV112D cells at 50 ug/ml after 72 hrs by BrdUrd incorporation assay; format: functional; settings: read-out: GI
# T47D [4] = assay: Antiproliferative activity against human T47D cells at 50 ug/ml after 24 hrs by BrdUrd incorporation assay; format: functional; settings: read-out: GI
# HeLa [5] = assay: Antiproliferative activity against human HeLa cells after 24 hrs by BrdUrd incorporation assay; format: functional, cell-based
# A549 [6] = assay: Antiproliferative activity against human A549 cells at 50 ug/ml after 24 hrs by BrdUrd incorporation assay; format: functional; settings: A549, 24 h, read-out: GI
# TOV112D [7] = assay: Antiproliferative activity against human TOV112D cells after 48 hrs by BrdUrd incorporation assay; format: functional, cell-based
# Vero [8] = assay: Antiproliferative activity against African green monkey Vero cells after 48 hrs by BrdUrd incorporation assay; format: cell-based; settings: Chlorocebus sabaeus
# HeLa [9] = assay: Antiproliferative activity against human HeLa cells after 72 hrs by BrdUrd incorporation assay; format: functional, cell-based
# T47D [10] = assay: Antiproliferative activity against human T47D cells after 48 hrs by BrdUrd incorporation assay; format: functional, cell-based
# Vero [11] = assay: Antiproliferative activity against African green monkey Vero cells after 24 hrs by BrdUrd incorporation assay; format: cell-based; settings: chlorocebus sabaeus
# A549 [12] = assay: Antiproliferative activity against human A549 cells after 72 hrs by BrdUrd incorporation assay; format: functional, cell-based; settings: A549, 72 h
# A549 [13] = assay: Antiproliferative activity against human A549 cells at 50 ug/ml after 72 hrs by BrdUrd incorporation assay; format: functional; settings: A549, 72 h, read-out: GI
# A549 [14] = assay: Antiproliferative activity against human A549 cells at 50 ug/ml after 48 hrs by BrdUrd incorporation assay; format: functional; settings: A549, 48 h, read-out: GI
# HeLa [15] = assay: Antiproliferative activity against human HeLa cells at 50 ug/ml after 24 hrs by BrdUrd incorporation assay; format: functional; settings: read-out: GI
# Vero [16] = assay: Antiproliferative activity against African green monkey Vero cells at 50 ug/ml after 24 hrs by BrdUrd incorporation assay; format: cell-based; settings: chlorocebus sabaeus
# TOV112D [17] = assay: Antiproliferative activity against human TOV112D cells after 24 hrs by BrdUrd incorporation assay; format: functional, cell-based
# HeLa [18] = assay: Antiproliferative activity against human HeLa cells after 48 hrs by BrdUrd incorporation assay; format: functional, cell-based
# T47D [19] = assay: Antiproliferative activity against human T47D cells at 50 ug/ml after 48 hrs by BrdUrd incorporation assay; format: functional; settings: read-out: GI
# T47D [20] = assay: Antiproliferative activity against human T47D cells at 50 ug/ml after 72 hrs by BrdUrd incorporation assay; format: functional; settings: read-out: GI
# A549 [21] = assay: Antiproliferative activity against human A549 cells after 48 hrs by BrdUrd incorporation assay; format: functional, cell-based; settings: A549, 48 h
# [22] = Antiproliferative activity against African green monkey Vero cells at 50 ug/ml after 48 hrs by BrdUrd incorporation assay; format: cell-based; settings: chlorocebus sabaeus, read-out: GI
# TOV112D [23] = assay: Antiproliferative activity against human TOV112D cells at 50 ug/ml after 24 hrs by BrdUrd incorporation assay; format: functional; settings: read-out: GI
# TOV112D [24] = assay: Antiproliferative activity against human TOV112D cells at 50 ug/ml after 48 hrs by BrdUrd incorporation assay; format: functional; settings: read-out: GI
# A549 [25] = assay: Antiproliferative activity against human A549 cells after 24 hrs by BrdUrd incorporation assay; format: functional, cell-based; settings: A549, 24 h
# TOV112D [26] = assay: Antiproliferative activity against human TOV112D cells after 72 hrs by BrdUrd incorporation assay; format: functional, cell-based
# T47D [27] = assay: Antiproliferative activity against human T47D cells after 24 hrs by BrdUrd incorporation assay; format: functional, cell-based
# T47D [28] = assay: Antiproliferative activity against human T47D cells after 72 hrs by BrdUrd incorporation assay; format: functional, cell-based
# HeLa [29] = assay: Antiproliferative activity against human HeLa cells at 50 ug/ml after 72 hrs by BrdUrd incorporation assay; format: functional; settings: read-out: GI
# [30] = Antiproliferative activity against African green monkey Vero cells at 50 ug/ml after 72 hrs by BrdUrd incorporation assay; format: cell-based; settings: chlorocebus sabaeus, read-out: GI
pIC50 (HeLa [5]),pIC50 (HeLa [9]),pIC50 (T47D [10]),pIC50 (A549 [12]),pIC50 (HeLa [18]),Compound,pIC50 (Vero [1]),inhibition of growth at 50 µg/mL (HeLa [2]) [%],inhibition of growth at 50 µg/mL (TOV112D [3]) [%],inhibition of growth at 50 µg/mL (T47D [4]) [%],inhibition of growth at 50 µg/mL (A549 [6]) [%],pIC50 (TOV112D [7]),pIC50 (Vero [8]),pIC50 (Vero [11]),inhibition of growth at 50 µg/mL (A549 [13]) [%],inhibition of growth at 50 µg/mL (A549 [14]) [%],inhibition of growth at 50 µg/mL (HeLa [15]) [%],growth inhibition (GI) (Vero [16]) [%],pIC50 (TOV112D [17]),inhibition of growth at 50 µg/mL (T47D [19]) [%],inhibition of growth at 50 µg/mL (T47D [20]) [%],further results
3.82,4.10,4.10,4.10,4.05,O=c1c(-c2cccs2)nnc2n1CCN2c1ccccc1Cl,4.00,80,100,95,75,4.10,3.89,3.82,95,95,50,50,4.05,100,100,"pIC50 (A549 [21]): 4.10; inhibition at 48 h, 50 ug/ml [22]: 60%; inhibition of growth at 50 µg/mL (TOV112D [23]): 80%; inhibition of growth at 50 µg/mL (TOV112D [24]): 95%; pIC50 (A549 [25]): 4.00; pIC50 (TOV112D [26]): 4.10; pIC50 (T47D [27]): 4.10; pIC50 (T47D [28]): 4.10; inhibition of growth at 50 µg/mL (HeLa [29]): 90%; inhibition at 72 h, 50 ug/ml [30]: 75%"
4.00,4.10,4.10,4.10,4.10,Cc1ccc(N2CCn3c2nnc(-c2cccs2)c3=O)cc1,4.10,100,100,95,90,4.10,4.10,4.05,100,95,80,90,4.05,100,100,"pIC50 (A549 [21]): 4.05; inhibition at 48 h, 50 ug/ml [22]: 95%; inhibition of growth at 50 µg/mL (TOV112D [23]): 90%; inhibition of growth at 50 µg/mL (TOV112D [24]): 100%; pIC50 (A549 [25]): 4.05; pIC50 (TOV112D [26]): 4.10; pIC50 (T47D [27]): 4.05; pIC50 (T47D [28]): 4.10; inhibition of growth at 50 µg/mL (HeLa [29]): 100%; inhibition at 72 h, 50 ug/ml [30]: 100%"
3.82,4.10,4.10,4.10,4.10,O=c1c(-c2cccs2)nnc2n1CCN2c1ccc(Cl)cc1,4.10,90,100,90,80,4.10,3.89,< 3.82,100,90,50,25,4.00,100,100,"pIC50 (A549 [21]): 4.10; inhibition at 48 h, 50 ug/ml [22]: 60%; inhibition of growth at 50 µg/mL (TOV112D [23]): 75%; inhibition of growth at 50 µg/mL (TOV112D [24]): 90%; pIC50 (A549 [25]): 4.05; pIC50 (TOV112D [26]): 4.10; pIC50 (T47D [27]): 4.10; pIC50 (T47D [28]): 4.10; inhibition of growth at 50 µg/mL (HeLa [29]): 100%; inhibition at 72 h, 50 ug/ml [30]: 90%"
3.92,4.10,4.05,4.10,4.05,O=c1c(-c2cccs2)nnc2n1CCN2c1ccccc1,4.05,100,100,95,80,4.10,3.96,3.77,100,90,70,50,4.05,100,100,"pIC50 (A549 [21]): 4.05; inhibition at 48 h, 50 ug/ml [22]: 75%; inhibition of growth at 50 µg/mL (TOV112D [23]): 90%; inhibition of growth at 50 µg/mL (TOV112D [24]): 100%; pIC50 (A549 [25]): 3.96; pIC50 (TOV112D [26]): 4.10; pIC50 (T47D [27]): 4.05; pIC50 (T47D [28]): 4.10; inhibition of growth at 50 µg/mL (HeLa [29]): 100%; inhibition at 72 h, 50 ug/ml [30]: 90%"
3.82,4.00,4.10,4.05,3.92,Cc1cccc(N2CCn3c2nnc(-c2cccs2)c3=O)c1C,4.05,65,95,90,45,4.00,3.85,< 3.82,90,60,50,25,< 3.82,100,100,"pIC50 (A549 [21]): 3.89; inhibition at 48 h, 50 ug/ml [22]: 55%; inhibition of growth at 50 µg/mL (TOV112D [23]): 40%; inhibition of growth at 50 µg/mL (TOV112D [24]): 75%; pIC50 (A549 [25]): < 3.82; pIC50 (TOV112D [26]): 4.10; pIC50 (T47D [27]): 4.05; pIC50 (T47D [28]): 4.10; inhibition of growth at 50 µg/mL (HeLa [29]): 75%; inhibition at 72 h, 50 ug/ml [30]: 90%"
4.10,4.10,4.10,4.10,4.10,O=c1c(-c2cccs2)nnc2n1CCN2c1cccc(Cl)c1,4.10,100,100,100,90,4.10,4.10,4.10,100,100,90,100,4.10,100,100,"pIC50 (A549 [21]): 4.10; inhibition at 48 h, 50 ug/ml [22]: 100%; inhibition of growth at 50 µg/mL (TOV112D [23]): 90%; inhibition of growth at 50 µg/mL (TOV112D [24]): 100%; pIC50 (A549 [25]): 4.10; pIC50 (TOV112D [26]): 4.10; pIC50 (T47D [27]): 4.10; pIC50 (T47D [28]): 4.10; inhibition of growth at 50 µg/mL (HeLa [29]): 100%; inhibition at 72 h, 50 ug/ml [30]: 100%"
3.82,4.00,4.05,4.10,3.89,COc1ccccc1N1CCn2c1nnc(-c1cccs1)c2=O,4.05,60,90,80,70,4.00,4.00,3.82,90,80,50,50,4.00,90,95,"pIC50 (A549 [21]): 4.00; inhibition at 48 h, 50 ug/ml [22]: 75%; inhibition of growth at 50 µg/mL (TOV112D [23]): 75%; inhibition of growth at 50 µg/mL (TOV112D [24]): 80%; pIC50 (A549 [25]): 3.96; pIC50 (TOV112D [26]): 4.10; pIC50 (T47D [27]): 4.00; pIC50 (T47D [28]): 4.10; inhibition of growth at 50 µg/mL (HeLa [29]): 80%; inhibition at 72 h, 50 ug/ml [30]: 90%"
< 3.80,4.05,4.05,4.10,3.96,Cc1ccccc1N1CCn2c1nnc(-c1cccs1)c2=O,4.05,75,100,80,80,4.10,3.80,< 3.80,100,95,45,25,4.05,90,100,"pIC50 (A549 [21]): 4.10; inhibition at 48 h, 50 ug/ml [22]: 50%; inhibition of growth at 50 µg/mL (TOV112D [23]): 90%; inhibition of growth at 50 µg/mL (TOV112D [24]): 100%; pIC50 (A549 [25]): 4.00; pIC50 (TOV112D [26]): 4.10; pIC50 (T47D [27]): 4.00; pIC50 (T47D [28]): 4.10; inhibition of growth at 50 µg/mL (HeLa [29]): 90%; inhibition at 72 h, 50 ug/ml [30]: 90%"
